Key:
[1] = Plasma concentrations of SCO-101 and SN-38 in patients upon repeated administration of SCO-101 (Example 1); format: in vivo, human; details: 150 mg SCO-101 repeated every 24 hours, FIG. 1D
Description: On days 1, 2, 3, 4, 5 and 6 in each treatment cycle, patients received one fixed daily dose of 150 mg SCO-101 taken in the morning at least 30 minutes before ingestion of food. On day 5 to 7, patients received FOLFIRI as specified for Colorectal cancer combination regimen 2. Blood samples were taken from patients at predefined timepoints according to the study protocol. During the first cycle of treatment, blood samples for pharmacokinetic analysis of SCO-101, irinotecan, and SN-38 were taken as follows: • Day 1; (pre-SCO-101 administration, 1; 4; 5; 6; 8); only for PK analysis of SCO-101 • Day 2; […] (pre-SCO-101 administration, 1; 4; 5; 6; 8) • Day 6; […] (48 hours), • Day 9; (96 hours). Blood samples were collected in 4 mL blood-collection tubes using lithium heparin as the anti-coagulant. Blood samples were centrifuged, and the resulting plasma is withdrawn and stored at −70° C. until analysis. […] The method and system, including validation were according to industry standard. Data were analysed using commercially available software such as Win-Non-Lin (available from Certara inc.) SCO-101 and Irinotecan was administered as described in the materials and methods section. Blood samples were withdrawn and analysed as specified. […] Raw data was then plotted using win-non-lin software to obtain relevant pharmacokinetic parameters, e.g. Cmax and AUC. […]

BCRP = target: T1, BCRP (Homo sapiens, UniProt Q9UNQ0); test: 3H-SN-38 uptake in HT29 SN-38 resistant cell monolayers (Example 6); format: cell-based
T1 construct: endogenous in cells; host or cells: HT29 parental and HT29 SN38-resistant colorectal cancer cells
T1 sequence (Q9UNQ0 1-655): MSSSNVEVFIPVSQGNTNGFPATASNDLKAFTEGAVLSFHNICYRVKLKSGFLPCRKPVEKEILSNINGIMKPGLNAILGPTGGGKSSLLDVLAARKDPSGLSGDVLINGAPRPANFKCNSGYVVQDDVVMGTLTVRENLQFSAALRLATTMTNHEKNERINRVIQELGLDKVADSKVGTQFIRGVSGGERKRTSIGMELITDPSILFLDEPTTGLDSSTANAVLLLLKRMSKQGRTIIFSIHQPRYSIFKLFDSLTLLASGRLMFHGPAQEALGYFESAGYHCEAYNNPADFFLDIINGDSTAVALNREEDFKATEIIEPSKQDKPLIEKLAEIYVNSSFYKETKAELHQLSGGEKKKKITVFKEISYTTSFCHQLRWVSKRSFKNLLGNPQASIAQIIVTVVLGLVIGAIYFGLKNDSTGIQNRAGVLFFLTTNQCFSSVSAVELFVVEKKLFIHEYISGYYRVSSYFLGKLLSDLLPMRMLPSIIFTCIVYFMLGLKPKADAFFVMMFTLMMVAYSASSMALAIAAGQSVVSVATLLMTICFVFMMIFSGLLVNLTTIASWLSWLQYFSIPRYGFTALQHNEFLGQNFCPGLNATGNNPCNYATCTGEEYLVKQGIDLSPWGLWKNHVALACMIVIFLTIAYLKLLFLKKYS
Description: All treatments were investigated in three technical replicates (N=3). On the day of experimentation, the culture media was exchanged with 100 μL transport buffer (HBSS, 0.05% BSA, 10 mM HEPES, pH 7.4) and cells were incubated for 15 minutes at 37° C.
Subsequently, the blank transport buffer was exchanged with 50 μL transport buffer containing the different compounds (in 2x of the final concentration) to be tested and incubated for 15 minutes at 37° C. The uptake experiment was started by adding 50 μL of ^3H-SN38 at a concentration of 2 μCi/mL to all wells (the resulting concentration of ^3H-SN38 during the experiment was 1 μCi/mL). The uptake experiment was stopped after 15 minutes of incubation at 37° C. by removing the transport buffer from all wells.
The cell monolayers were subsequently washed twice by adding/removing ice-cold transport buffer twice and finally the cell monolayers were lysed by incubation in 100 μl of 0.1% TritonX-100 for 15 minutes at ambient temperature. Cell lysates were transferred to scintillation vials containing 2 mL of scintillation fluid (Ultima Gold, PerkinElmer). Each well was washed with 2×100 μL purified water (milliQ), which was also transferred to respective scintillation vials.

SCO-101 plasma level at which levels stabilize over time ([1]; modelled from patient data): around 55 μg/mL
half-life ([1]; human, plasma, oral, read-out: SCO-101 half-life after stopping the administration (converted)): ~24 h
Uptake of SN-38 in the presence vs absence of SCO-101, all seeded cell densities (BCRP; 25 μM SCO-101, HT29 SN-38 resistant): increased uptake
Uptake of SN-38 relative to blank HBSS transport buffer control (BCRP; 25 μM test compound, HT29 SN-38 resistant, ANOVA α=0.05): significantly increased
EC50 (BCRP; HT29 SN-38 res cell monolayers, read-out: Estimated EC50-value for increase in uptake of SN-38): 9.8 µM
Uptake of SN-38 with increasing concentrations of SCO-101 (BCRP; SCO-101 100 to 0.5 μM, HT29 SN-38 resistant): concentration-dependent increase
SMILES: O=C(Nc1cc(C(F)(F)F)cc(C(F)(F)F)c1)Nc1ccc(Br)cc1-c1nnn[nH]1 [SCO-101]

Reference: patent publication US20250262188A1, “Methods of Increasing the Plasma Drug Exposure of Anticancer Agents” (Scandion Oncology A/S, priority 2021, published 2025)
